In brackets after ≈: the same amount, converted by molar mass. Entries after “also recorded” stand apart in the source; their conditions may differ.
Assays:
Bacillus cereus = test: MIC on agar plates (TSA)
[1] = test system: Streptococcus suis type 2; test: MIC on agar plates (TSA)
Enterococcus hirae = test: MIC on agar plates (MRSA)
[2] = test system: Bifidobacterium adolescentis; test: MIC on agar plates (RCBA); format: cell-based; details: RCBA agar plate, anaerobic, 72 hours at 30° C.
bacteria tested = test: Antimicrobial activity on agar plates, summary for the bacteria tested; format: cell-based; details: agar plates
[3] = in vivo
Protocol: (§1) Because the sphingolipids need to be transported together with the food to the small and large intestines to be able to be active there, the transport of phytosphingosine and sphinganine in the stomach and small intestine model TIM-1 was tested. Also, the transport of phytosphingosine in a fistulated pig was tested after the animal had been fed with feed containing phytosphingosine (1 wt. %). In a fistulated pig, the small intestine is uncoupled from the large intestine so that the digested feed at the end of the small intestine can be collected.
To investigate in an in vivo system whether sphingolipids from the food do actually arrive in the large intestine and are not prematurely absorbed or metabolized, pig basic feed to which phytosphingosine (1 wt. %) was added was fed to a fistulated pig.
The feed was prepared by mixing a solution of phytosphingosine in ethanol with the feed and drying it in vacuo. Every hour, the intestinal content (chymus) at the end of the small intestine was separately collected and frozen dry. The dry intestinal contents were then extracted with chloroform/methanol (2:1, v/v). The extracts were then filtered over glass wool and evaporated under a nitrogen flow. The residues were examined for the presence of phytosphingosine, sphingosine, sphinganine and sphingomyelin by means of LC-MS.

[4] = rat, in vivo; cited from earlier work
Bacteroides fragilis = test: MIC on agar plates (RCBA); format: cell-based; details: RCBA agar plate, anaerobic, 72 hours at 30° C.
Fusobacterium nucleatum = test: MIC on agar plates (RCBA); format: cell-based; details: RCBA agar plate, anaerobic, 72 hours at 30° C.
[5] = test system: Lactobacillus acidophilus; test: MIC on agar plates (MRSA)
Listeria monocytogenes = test: MIC on agar plates (TSA)
Bifidobacterium spp. = test: MIC on agar plates (RCBA); format: cell-based; details: RCBA agar plate, anaerobic, 72 hours at 30° C.
Pseudomonas aeruginosa = test: MIC on agar plates (TSA); format: cell-based; details: TSA agar plate, aerobic, 48 hours at 30° C.
Salmonella enteritidis = test: MIC on agar plates (TSA); format: cell-based; details: TSA agar plate, aerobic, 48 hours at 30° C.
Lactobacillus casei = test: MIC on agar plates (MRSA)
Clostridium spp. = test: MIC on agar plates (RCBA); format: cell-based
Lactobacillus sake = test: MIC on agar plates (MRSA)
Leuconostoc carnosum = test: MIC on agar plates (MRSA)
Clostridium perfringens = test: microbe, parasite or virus in culture; format: cell-based; details: 72 h, read-out: MIC, C. perfringens
Clostridium difficile [6] = test: MIC on agar plates (RCBA); format: cell-based; details: Clostridioides difficile; RCBA agar plate, anaerobic, 72 hours at 30° C.
[7] = test system: Lactobacillus acidophilus; test: Antimicrobial activity in small intestine model TIM-1; format: cell-based; details: 20 μg/ml of sphingolipid; lumen samples plated on Rogosa agar
Bifidobacterium = test: Antimicrobial activity in TIM-2 large intestine model; format: cell-based
Clostridium difficile [8] = test: as above; format: cell-based
Bacteroides = test: as above; format: cell-based
Lactobacillus = test: as above; format: cell-based
[9] = format: in vitro ADME
Protocol: as §1
To investigate whether sphingolipids from the food are transported through the small intestine without being absorbed or being chemically or enzymatically modified in the small intestine, phytosphingosine and sphinganine were mixed in a standard Tim-1 food and exposed to a TIM-1 treatment. Of each sphingolipid, 5 mg per 100 grams of food (0.005 wt. %) in the food were tested. After starting the TIM-1 digestion processes in the TIM-1 stomach, at the fixed times, lumen samples of 100 grams were taken. Also, dialysate samples were taken from the material which was transported through the semi-permeable TIM-1 membrane. The dialysate samples varied between 1428 and 1122 grams. […] Next to the samples, the exposure time in minutes is given.

Enterobacteriaceae = test: Antimicrobial activity in TIM-2 large intestine model; format: cell-based
Enterococcus = test: as above; format: cell-based
Clostridium difficile [10] = test: Antimicrobial activity in small intestine model TIM-1; format: cell-based; details: 20 μg/ml of sphingolipid; lumen samples plated on Clostridium difficile agar
Gram-positive bacteria = test: Antimicrobial activity on agar plates, summary for Gram-positive bacteria; format: cell-based
[11] = test system: Lactobacillus acidophilus; test: Survival in liquid ileum medium; details: within 200 minutes
[12] = test system: sulfite-reducing Clostridium; test: Antimicrobial activity in TIM-2 large intestine model
Clostridium difficile [13] = test: Survival in liquid ileum medium; format: cell-based; details: within 200 minutes
[14] = TSA agar plate, aerobic, 48 hours at 30° C.
[15] = MRSA agar plate, anaerobic, 72 hours at 30° C.
[16] = 60 min, 5 mg per 100 grams of food
[17] = 120 min, 5 mg per 100 grams of food
[18] = 180 min, 5 mg per 100 grams of food
[19] = 240 min, 5 mg per 100 grams of food
[20] = ileum medium, absence of bile, 10 and 50 μg/ml

sphingomyelin
MIC, B. cereus (Bacillus cereus; [14]): >731 µg/mL
MIC, S. suis type 2 [1, 14]: >731 µg/mL
MIC, E. hirae (Enterococcus hirae; [15]): >731 µg/mL
MIC, B. adolescentis [2]: >731 µg/mL
Inhibition of the bacteria tested (bacteria tested): do not inhibit any of the bacteria tested
Presence in the intestinal contents at the end of the small intestine ([3]; pig): larger amounts
Share of the sphingomyelin fed that is found in the feces [4]: approximately 25%
MIC, B. fragilis (Bacteroides fragilis): >731 µg/mL
MIC, F. nucleatum (Fusobacterium nucleatum): >731 µg/mL
MIC, L. acidophilus ([5]; anaerobic, 72 hours at 30° C.): >731 µg/mL
MIC, L. monocytogenes (Listeria monocytogenes; [14]): >731 µg/mL
MIC, Bif. spp. (Bifidobacterium spp.): >731 µg/mL
MIC, P. aeruginosa (Pseudomonas aeruginosa): >731 µg/mL
MIC, S. enteritidis (Salmonella enteritidis): >731 µg/mL
MIC, L. casei (Lactobacillus casei; [15]): >731 µg/mL
MIC, C. spp. (Clostridium spp.; RCBA agar plate, anaerobic, 72 hours at 30° C.): >731 µg/mL
MIC, L. sake (Lactobacillus sake; anaerobic, 72 hours at 30° C.): >731 µg/mL
MIC, L. carnosum (Leuconostoc carnosum; agar plate, anaerobic, 72 hours at 30° C.): >731 µg/mL

CCCCCCCCCCCCCC[C@@H](O)[C@@H](O)[C@@H](N)CO [Phytosphingosine, phytosphingosine]
MIC (Clostridium perfringens): 5.9 µg/mL (≈ 18.6 µM)
MIC (Clostridium difficile [6]): 5.7 µg/mL (≈ 18 µM)
Antimicrobial activity against Lactobacillus acidophilus in TIM-1 [7]: no demonstrable antimicrobial activity
Killing of other bacteria: Bifidobacterium (Bifidobacterium; 10 μg/ml): no significant killing
Bifidobacterium decreases by a factor of (Bifidobacterium; 50 μg/ml): 55
MIC (Bacillus cereus; Bacillus cereus, 48 h, read-out: MIC, B. cereus): 6.3 µg/mL (≈ 19.8 µM)
MIC ([1]; Streptococcus suis, TYPE2, 48 h, read-out: MIC, S. suis type 2): 6.3 µg/mL (≈ 19.8 µM)
MIC (Enterococcus hirae; Enterococcus hirae, 72 h, read-out: MIC, E. hirae): > 36.5 µg/mL
MIC ([2]; Bifidobacterium adolescentis, read-out: MIC, B. adolescentis): 8 µg/mL (≈ 25.2 µM)
Killing of C. difficile (Clostridium difficile [8]; TIM-2, 10 μg/ml): no significant killing
Decrease of C. difficile (Clostridium difficile [8]; TIM-2, 50 μg/ml, within 12 hours): 550 fold
Selectivity of antimicrobial activity against Clostridium difficile (Clostridium difficile [8]; TIM-2 large intestine model): selective antimicrobial activity
Killing of other bacteria: Bacteroides (Bacteroides; 10 μg/ml): no significant killing
Bacteroides decreases by a factor of (Bacteroides; 50 μg/ml): 10
Killing of other bacteria: Lactobacillus (Lactobacillus; 10 μg/ml): no significant killing
Lactobacillus decreases by a factor of (Lactobacillus; 50 μg/ml): 24
Transport through the TIM-1 system [9]: transported to the large intestine to a sufficient extent
Concentration in TIM-1 sample: Dialysate ileum 0-120′ ([9]; 5 mg per 100 grams of food): 0 ng/mL
Concentration in TIM-1 sample: Dialysate ileum 120-240′ ([9]; 5 mg per 100 grams of food): 0 ng/mL
Concentration in TIM-1 sample: Dialysate jejunum 0-120′ ([9]; 5 mg per 100 grams of food): 0 ng/mL
Concentration in TIM-1 sample: Dialysate jejunum 120-240′ ([9]; 5 mg per 100 grams of food): 0 ng/mL
Concentration in TIM-1 sample: Food ([9]; 5 mg per 100 grams of food): 5190 ng/mL
Concentration in TIM-1 sample: Residue jejunum/ileum + dialysis fluid ([9]; 5 mg per 100 grams of food): 3320 ng/mL
Concentration in TIM-1 sample: Residue stomach/duodenum + dialysis fluid ([9]; 5 mg per 100 grams of food): 1030 ng/mL
Share of the amount used found in the samples (rough mass balance) ([9]; 5 mg per 100 grams of food): approx. 20%
Concentration in TIM-1 sample: Lumen ileum 60′ [9, 16]: 200 ng/mL
Concentration in TIM-1 sample: Lumen jejunum 60′ [9, 16]: 1470 ng/mL
Concentration in TIM-1 sample: Lumen ileum 120′ [9, 17]: 2230 ng/mL
Concentration in TIM-1 sample: Lumen jejunum 120′ [9, 17]: 1790 ng/mL
Concentration in TIM-1 sample: Lumen ileum 180′ [9, 18]: 2220 ng/mL
Concentration in TIM-1 sample: Lumen jejunum 180′ [9, 18]: 3410 ng/mL
Concentration in TIM-1 sample: Lumen ileum 240′ [9, 19]: 1960 ng/mL
Concentration in TIM-1 sample: Lumen jejunum 240′ [9, 19]: 4100 ng/mL
Health of the pig [3]: remained healthy
Maximum phytosphingosine in intestinal contents at the end of the small intestine ([3]; pig): 76 μg/g of dry intestinal contents
Time from which phytosphingosine leaves the small intestine ([3]; pig): from two hours after feeding
Time of the maximum after feeding ([3]; pig): 9 h
MIC (Bacteroides fragilis; Bacteroides fragilis, read-out: MIC, B. fragilis): 2.1 µg/mL (≈ 6.61 µM)
Killing of other bacteria: Enterobacteriaceae (Enterobacteriaceae; 10 μg/ml): no significant killing
Enterobacteriaceae decrease by a factor of (Enterobacteriaceae; 50 μg/ml): 77
MIC (Fusobacterium nucleatum; Fusobacterium nucleatum, read-out: MIC, F. nucleatum): < 6.3 µg/mL
MIC ([5]; Lactobacillus acidophilus, 72 h, read-out: MIC, L. acidophilus): > 36.5 µg/mL
Killing of other bacteria: Enterococcus (Enterococcus; 10 μg/ml): no significant killing
Enterococcus decreases by a factor of (Enterococcus; 50 μg/ml): 5
MIC (Listeria monocytogenes; Listeria monocytogenes, 48 h, read-out: MIC, L. monocytogenes): 6.3 µg/mL (≈ 19.8 µM)
MIC (Bifidobacterium spp.; Bifidobacterium, read-out: MIC, Bif. spp.): 0.9 µg/mL (≈ 2.83 µM)
Antimicrobial activity against Clostridium difficile in TIM-1 (Clostridium difficile [10]): no demonstrable antimicrobial activity
Antimicrobial activity against Gram-positive bacteria (Gram-positive bacteria): killed; also recorded: strong antimicrobial activity
Killing of Lactobacillus acidophilus [11, 20]: virtually completely killed
Killing of Lactobacillus acidophilus ([11]; liquid cultures, 50 ppm): for the larger part killed
MIC (Pseudomonas aeruginosa; Pseudomonas aeruginosa, read-out: MIC, P. aeruginosa): > 731 µg/mL
MIC (Salmonella enteritidis; Salmonella enterica, ENTERITIDIS, read-out: MIC, S. enteritidis): > 731 µg/mL
Killing of other bacteria: sulfite-reducing clostridia ([12]; 10 μg/ml): no significant killing
Sulfite-reducing Clostridium decreases by a factor of ([12]; 50 μg/ml): 36
MIC (Lactobacillus casei; Lacticaseibacillus casei, 72 h, read-out: MIC, L. casei): > 36.5 µg/mL
Killing of Clostridium difficile (Clostridium difficile [13]; [20]): virtually completely killed
Killing of Clostridium difficile (Clostridium difficile [13]; liquid cultures, 50 ppm): for the larger part killed
MIC (Clostridium spp.; Clostridium, 72 h, read-out: MIC, C. spp.): 1.1 µg/mL (≈ 3.46 µM)
MIC (Lactobacillus sake; Latilactobacillus sakei, 72 h, read-out: MIC, L. sake): 2.2 µg/mL (≈ 6.93 µM)
MIC (Leuconostoc carnosum; 72 h, read-out: MIC, L. carnosum): < 0.3 µg/mL
